Results from ChEMBL document CHEMBL5390237, “Discovery of Selective Histone Deacetylase 1 and 2 Inhibitors: Screening of a Focused Library Constructed by Click Chemistry, Kinetic Binding Analysis, and Biological Evaluation” (J Med Chem, 2023).

Biological target: Histone deacetylase 2 (Homo sapiens, UniProt Q92769)
Assay: Inhibition of full-length recombinant human C-terminal GST tagged HDAC2 expressed in Sf9 insect cells using aminoluciferin peptide substrate at 100 nM preincubated for 3 hrs followed by substrate addition and measured after 30 mins by HDAC-Glo I/II chemiluminescence assay
Details: time 3.5 hrs

Sequence of Histone deacetylase 2 (Q92769 whole entry): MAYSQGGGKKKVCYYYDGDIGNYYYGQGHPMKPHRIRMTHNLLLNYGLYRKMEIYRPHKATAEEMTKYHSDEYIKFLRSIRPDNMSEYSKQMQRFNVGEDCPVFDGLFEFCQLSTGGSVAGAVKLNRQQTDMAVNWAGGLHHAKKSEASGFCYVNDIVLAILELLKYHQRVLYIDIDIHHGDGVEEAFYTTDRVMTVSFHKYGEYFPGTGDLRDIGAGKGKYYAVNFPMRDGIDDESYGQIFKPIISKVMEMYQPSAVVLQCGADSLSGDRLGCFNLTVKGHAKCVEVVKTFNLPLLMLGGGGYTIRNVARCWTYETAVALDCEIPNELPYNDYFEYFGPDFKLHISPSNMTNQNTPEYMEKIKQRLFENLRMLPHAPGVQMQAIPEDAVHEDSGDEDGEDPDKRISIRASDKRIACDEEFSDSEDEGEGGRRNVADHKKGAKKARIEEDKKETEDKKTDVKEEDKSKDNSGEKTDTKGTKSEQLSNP

| inhibition [%] | Structure (SMILES) |
| --- | --- |
| 27 | Nc1ccc(-c2cccs2)cc1NC(=O)CCc1cn(CCc2ccc([N+](=O)[O-])cc2)nn1 |
| 0 | Nc1ccc(-c2ccsc2)cc1NC(=O)c1cn(-c2ccccc2-c2ccccc2)nn1 |
| 0 | Nc1ccc(-c2ccccc2)cc1NC(=O)CCc1cn(CCc2ccccc2Cl)nn1 |
| 26 | Nc1ccc(-c2ccc(F)cc2)cc1NC(=O)CCc1cn(Cc2ccc3ccccc3n2)nn1 |
| 3 | Nc1ccc(-c2ccc(F)cc2)cc1NC(=O)CCc1cn(-c2ccc(O)cc2)nn1 |
| 0 | Nc1ccc(-c2ccccc2)cc1NC(=O)CCc1cn(CCc2ccsc2)nn1 |
| 0 | Nc1ccc(-c2ccsc2)cc1NC(=O)CCc1cn(Cc2cccc(C(=O)O)c2)nn1 |
| 0 | Cc1ccc(-n2cc(CCC(=O)Nc3cc(-c4cccnc4)ccc3N)nn2)cc1C |
| 2 | Nc1ccc(-c2cccnc2)cc1NC(=O)CCc1cn(-c2ccc([N+](=O)[O-])cc2)nn1 |
| 35 | Nc1ccc(-c2cccs2)cc1NC(=O)CCc1cn(CCc2ccc(C(=O)O)cc2)nn1 |
| 0 | Nc1ccc(-c2ccccc2)cc1NC(=O)CCc1cn(-c2ccc(I)cc2)nn1 |
| 10 | COc1ccc(Cn2cc(CCC(=O)Nc3cc(-c4cccs4)ccc3N)nn2)cc1 |
| 0 | Cc1ccccc1CCn1cc(C(=O)Nc2cc(-c3ccccc3)ccc2N)nn1 |
| 0 | Nc1ccc(-c2ccccc2)cc1NC(=O)c1cn(CCCCCc2ccccc2)nn1 |
| 12 | COc1ccccc1CCn1cc(CCC(=O)Nc2cc(-c3cccs3)ccc2N)nn1 |
| 16 | Cc1ccc(CCn2cc(CCC(=O)Nc3cc(-c4ccccc4)ccc3N)nn2)cc1 |
| 11 | Nc1ccc(-c2ccccc2)cc1NC(=O)c1cn(Cc2nc3ccccc3[nH]2)nn1 |
| 18 | Nc1ccc(-c2ccc(F)cc2)cc1NC(=O)CCc1cn(CCN2CCc3ccccc3C2)nn1 |
| 0 | Nc1ccc(-c2ccccc2)cc1NC(=O)CCc1cn(Cc2cccc(-c3ccccc3)c2)nn1 |
| 6 | Nc1ccc(-c2cccs2)cc1NC(=O)CCc1cn(Cc2ccc(Oc3ccccc3)cc2)nn1 |
| 0 | Nc1ccc(-c2ccccc2)cc1NC(=O)c1cn(Cc2cc3ccccc3s2)nn1 |
| 2 | Nc1ccc(-c2ccsc2)cc1NC(=O)CCc1cn(Cc2cccc3ccccc23)nn1 |

| inhibition [%] | Structure (SMILES) |
| --- | --- |
| 0 | Cc1ccc(-n2cc(CCC(=O)Nc3cc(-c4ccccc4)ccc3N)nn2)cc1C |
| 11 | Cc1cccc(C)c1NC(=O)Cn1cc(CCC(=O)Nc2cc(-c3cccnc3)ccc2N)nn1 |
| 3 | Nc1ccc(-c2ccsc2)cc1NC(=O)CCc1cn(Cc2cc3ccccc3s2)nn1 |
| 0 | Nc1ccc(-c2ccccc2)cc1NC(=O)c1cn(CCc2cccc(F)c2)nn1 |
| 7 | Nc1ccc(-c2cccnc2)cc1NC(=O)CCc1cn(CCc2ccc(Cl)cc2)nn1 |
| 10 | COc1ccccc1CCn1cc(CCC(=O)Nc2cc(-c3ccccc3)ccc2N)nn1 |
| 0 | Nc1ccc(-c2ccccc2)cc1NC(=O)CCc1cn(CCCCCCCC(=O)O)nn1 |
| 19 | Nc1ccc(-c2ccsc2)cc1NC(=O)CCc1cn(CCc2ccsc2)nn1 |
| 1 | Nc1ccc(-c2ccccc2)cc1NC(=O)CCc1cn(CCc2cccc(C(F)(F)F)c2)nn1 |
| 2 | Cc1ccc(CCn2cc(C(=O)Nc3cc(-c4ccccc4)ccc3N)nn2)cc1 |
| 0 | Nc1ccc(-c2cccs2)cc1NC(=O)CCc1cn(-c2ccccc2-c2ccccc2)nn1 |
| 20 | COc1ccccc1CCn1cc(CCC(=O)Nc2cc(-c3ccsc3)ccc2N)nn1 |
| 1 | Nc1ccc(-c2ccccc2)cc1NC(=O)CCc1cn(CCc2cccc(Cl)c2)nn1 |
| 1 | Nc1ccc(-c2cccnc2)cc1NC(=O)CCc1cn(-c2ccc(I)cc2)nn1 |
| 9 | Nc1ccc(-c2ccccc2)cc1NC(=O)CCc1cn(Cc2cccc3ccccc23)nn1 |
| 7 | Nc1ccc(-c2cccnc2)cc1NC(=O)CCc1cn(Cc2ccc(C(=O)O)cc2)nn1 |
| 5 | Nc1ccc(-c2cccs2)cc1NC(=O)CCc1cn(CCc2cccc(F)c2)nn1 |
| 0 | Nc1ccc(-c2cccs2)cc1NC(=O)CCc1cn(-c2cccc3ccccc23)nn1 |
| 19 | Nc1ccc(-c2ccsc2)cc1NC(=O)CCc1cn(CCCc2ccccc2)nn1 |
| 10 | CCc1ccc(Cn2cc(CCC(=O)Nc3cc(-c4cccs4)ccc3N)nn2)cc1 |
| 0 | Nc1ccc(-c2ccc(F)cc2)cc1NC(=O)CCc1cn(Cc2cccc(-c3ccccc3)c2)nn1 |

Continued, compound first:

| Structure (SMILES) | inhibition [%] |
| --- | --- |
| CCc1ccc(Cn2cc(C(=O)Nc3cc(-c4cccs4)ccc3N)nn2)cc1 | 13 |
| Nc1ccc(-c2ccc(F)cc2)cc1NC(=O)c1cn(/C=C/c2ccccc2)nn1 | 3 |
| Nc1ccc(-c2cccs2)cc1NC(=O)CCc1cn(CCCCCCC(=O)O)nn1 | 9 |
| Nc1ccc(-c2cccs2)cc1NC(=O)c1ccc(-c2cn(Cc3cccc(-c4ccccc4)c3)nn2)s1 | 0 |
| Cc1ccc(CCn2cc(C(=O)Nc3cc(-c4ccsc4)ccc3N)nn2)cc1 | 8 |
| Nc1ccc(-c2cccnc2)cc1NC(=O)CCc1cn(CC2CCCCC2)nn1 | 0 |
| Nc1ccc(-c2ccc(F)cc2)cc1NC(=O)c1cn(Cc2cccc(-c3ccccc3)c2)nn1 | 0 |
| Nc1ccc(-n2cc(C(=O)Nc3cc(-c4ccc(F)cc4)ccc3N)nn2)cc1 | 42 |
| Nc1ccc(-c2cccs2)cc1NC(=O)c1ccc(-c2cn(CCc3cccc(C(F)(F)F)c3)nn2)cc1 | 3 |
| Nc1ccc(-c2ccccc2)cc1NC(=O)c1cn(-c2ccc([N+](=O)[O-])cc2)nn1 | 0 |
| Nc1ccc(-c2cccs2)cc1NC(=O)CCc1cn(CCCCC(=O)O)nn1 | 2 |
| COc1ccc(Cn2cc(-c3ccc(C(=O)Nc4cc(-c5cccs5)ccc4N)s3)nn2)cc1 | 27 |
| Nc1ccc(-c2ccsc2)cc1NC(=O)c1cn(Cc2ccc(OC(F)(F)F)cc2)nn1 | 0 |
| Nc1ccc(-c2cccs2)cc1NC(=O)CCc1cn(CC2CCCCC2)nn1 | 0 |
| Nc1ccc(-c2ccccc2)cc1NC(=O)c1cn(CCC23CC4CC(CC(C4)C2)C3)nn1 | 0 |
| Nc1ccc(-c2ccc(F)cc2)cc1NC(=O)c1cn(CCC2CCCC2)nn1 | 0 |
| Nc1ccc(-c2cccnc2)cc1NC(=O)CCc1cn(CCCCCCCC(=O)O)nn1 | 0 |
| Cc1csc(CCn2cc(C(=O)Nc3cc(-c4ccsc4)ccc3N)nn2)n1 | 12 |
| Nc1ccc(-c2cccs2)cc1NC(=O)c1cn(CCN2CCOCC2)nn1 | 0 |
| Nc1ccc(-c2cccs2)cc1NC(=O)c1cccc(-c2cn(Cc3cccc4ccccc34)nn2)c1 | 14 |
| Nc1ccc(-c2cccs2)cc1NC(=O)c1ccc(-c2cn(Cc3cc4ccccc4s3)nn2)cc1 | 0 |
| Nc1ccc(-c2cccs2)cc1NC(=O)c1ccc(-c2cn(Cc3ccc(-c4ccccc4)cc3)nn2)cc1 | 0 |
| Nc1ccc(-c2ccsc2)cc1NC(=O)c1cn(-c2ccc(I)cc2)nn1 | 0 |
| Nc1ccc(-c2cccs2)cc1NC(=O)c1cn(CCc2cccc(C(F)(F)F)c2)nn1 | 0 |
| Nc1ccc(-c2cccs2)cc1NC(=O)c1ccc(-c2cn(Cc3cccc4ccccc34)nn2)s1 | 13 |
| Nc1ccc(-c2cccs2)cc1NC(=O)c1ccc(-c2cn(CCC3CCCC3)nn2)s1 | 0 |

| Structure (SMILES) | inhibition [%] |
| --- | --- |
| Nc1ccc(-c2cccs2)cc1NC(=O)c1ccc(-c2cn(CCCCCc3ccccc3)nn2)cc1 | 0 |
| Nc1ccc(-c2ccsc2)cc1NC(=O)c1cn(Cc2cccc(C(=O)O)c2)nn1 | 0 |
| Nc1ccc(-c2cccs2)cc1NC(=O)c1cn(CCc2ccccc2C(F)(F)F)nn1 | 5 |
| Nc1ccc(-c2ccc(F)cc2)cc1NC(=O)c1cn(CCN2CCOCC2)nn1 | 10 |
| Nc1ccc(-c2cccs2)cc1NC(=O)c1ccc(-c2cn(Cc3cccc(C(=O)O)c3)nn2)s1 | 25 |
| Nc1ccc(-c2ccsc2)cc1NC(=O)c1cn(CCC2CCCCC2)nn1 | 0 |
| Nc1ccc(-c2cccs2)cc1NC(=O)c1cccc(-c2cn(CC(=O)c3ccccc3)nn2)c1 | 7 |
| Nc1ccc(-c2cccs2)cc1NC(=O)c1ccc(-c2cn(CCc3ccc([N+](=O)[O-])cc3)nn2)s1 | 23 |
| Nc1ccc(-c2ccsc2)cc1NC(=O)c1cn(CCc2cccc(Cl)c2)nn1 | 0 |
| Nc1ccc(-c2cccs2)cc1NC(=O)c1ccc(-c2cn(Cc3cccc(C(=O)O)c3)nn2)cc1 | 0 |
| Nc1ccc(-c2ccc(F)cc2)cc1NC(=O)c1cn(Cc2cc3ccccc3s2)nn1 | 7 |
| Nc1ccc(-c2cccs2)cc1NC(=O)c1ccc(-c2cn(CC(=O)Nc3ccc(F)cc3)nn2)cc1 | 50 |
| Nc1ccc(-c2ccsc2)cc1NC(=O)c1cn(/C=C/c2ccccc2)nn1 | 5 |
| Nc1ccc(-c2ccsc2)cc1NC(=O)c1cn(-c2cccc3ccccc23)nn1 | 0 |
| Nc1ccc(-c2cccs2)cc1NC(=O)c1ccc(-c2cn(CC34CC5CC(CC(C5)C3)C4)nn2)s1 | 0 |
| CCc1ccc(Cn2cc(-c3ccc(C(=O)Nc4cc(-c5cccs5)ccc4N)s3)nn2)cc1 | 2 |
| Nc1ccc(-c2cccs2)cc1NC(=O)c1cn(CCc2ccc(C(=O)O)cc2)nn1 | 16 |
| Nc1ccc(-c2cccs2)cc1NC(=O)c1ccc(-c2cn(/C=C/c3ccccc3)nn2)s1 | 5 |
| Nc1ccc(-c2cccs2)cc1NC(=O)c1ccc(-c2cn(Cc3nc4ccccc4[nH]3)nn2)cc1 | 37 |
| Nc1ccc(-c2ccsc2)cc1NC(=O)c1cn(CCCCC(=O)O)nn1 | 0 |
| Nc1ccc(-c2cccs2)cc1NC(=O)c1cccc(-c2cn(-c3ccc(Br)cc3)nn2)c1 | 0 |
| COc1ccc(CCn2cc(-c3cccc(C(=O)Nc4cc(-c5cccs5)ccc4N)c3)nn2)cc1 | 1 |
| Cc1ccc(CCn2cc(C(=O)Nc3cc(-c4ccc(F)cc4)ccc3N)nn2)cc1 | 7 |
| Nc1ccc(-c2cccs2)cc1NC(=O)c1ccc(-c2cn(CCc3ccc([N+](=O)[O-])cc3)nn2)cc1 | 42 |
| Nc1ccc(-c2cccs2)cc1NC(=O)c1cccc(-c2cn(CCN3CCc4ccccc4C3)nn2)c1 | 20 |
| Cc1ccc(-n2cc(C(=O)Nc3cc(-c4ccc(F)cc4)ccc3N)nn2)cc1C | 11 |
